Values of other authors, collected in patent publication US11168056B2, “Process for the manufacturing of (6aR,10aR)-7-propyl-6,6a,7,8,9,10,10a,11-octahydro-[1,3]dioxolo[4′,5′:5,6]benzo[1,2-G]quinoline and (4aR,10aR)-1-propyl-1,2,3,4,4a,5,10,10a-octahydro-benzo[G]quinoline-6,7-diol” (H. Lundbeck A/S, priority 2019, dated 2021).
Read-outs that look alike come from different tables or passages of the source.

Experiments:
PD patients = settings: intravenous (IV)
[1] = man, after oral dosing
[2] = test system: animal models relevant for Parkinson's Disease; settings: various animal models
[3] = rats
[4] = rats; remark: listed apart in the source

SMILES: CCCc1cc2c(s1)CN[C@@H]1CCc3cc(OC(C)=O)c(OC(C)=O)cc3[C@@H]21 [Adrogolide]
- antiparkinson efficacy (PD patients): comparable to that of L-DOPA
- hepatic first-pass metabolism [1]: extensive
- oral bioavailability [1]: ~4%

SMILES: CCCN1CCC[C@@H]2Cc3c(ccc(O)c3O)C[C@H]21 [compound (I), (4aR,10aR)-1-propyl-1,2,3,4,4a,5,10,10a-octahydro-benzo[g]quinoline-6,7-diol]
- efficacy in animal models relevant for Parkinson's Disease [2]: effective
- oral bioavailability [3]: low

SMILES: CCCN1CCC[C@@H]2Cc3c(ccc4c3OCO4)C[C@H]21 [compound (Ib), (6aR,10aR)-7-propyl-6,6a,7,8,9,10,10a,11-octahydro-[1,3]dioxolo[4′,5′:5,6]benzo[1,2-g]quinoline]
- conversion of compound (Ib) to compound (I) (human hepatocytes): demonstrated
- efficacy in animal models relevant for Parkinson's Disease [2]: effective
- conversion of compound (Ib) to compound (I) (rat hepatocytes): demonstrated

SMILES: CCCN1CCC[C@@H]2CC3=C(CCCC3=O)C[C@H]21 [(Ia)]
- efficacy in animal models relevant for Parkinson's Disease [2]: effective
- conversion to the active compound (I) [4]: converted to the active compound (I)
